In ChEMBL document CHEMBL1136040, “Specific accumulation and growth inhibitory effects of hybrid liposomes to hepatoma cells in vitro” (Bioorg Med Chem Lett, 2002):

System: HepG2
Assay: Compound was tested for its inhibition on growth of human hepatoma cells (Hep-G2); No inhibitory effects was observed
Assay type: functional, cell-based

Compound	inhibition
CCCCCCCCCCCCCC(=O)OCC(COP(=O)([O-])OCC[N+](C)(C)C)OC(=O)CCCCCCCCCCCNc1ccc([N+](=O)[O-])c2nonc12 (configuration not stated)	No inhibition
CCCCCCCCCCCCCC(=O)OCC(COP(=O)([O-])OCC[N+](C)(C)C)OC(=O)CCCCCCCCCCCCC (configuration not stated)	No inhibition
